Source: a compilation of properties of binary mixtures (doi:10.1007/s10953-020-00967-3)

Assay: xn = mol fraction of the nth substance listed
Details: 101 kPa

CN(C)C=O + CCCC[n+]1ccn(C)c1.F[B-](F)(F)F
viscosity (293.15 K, x2 = 0): 0.88 mPa·s | viscosity (298.15 K, x2 = 0): 0.83 mPa·s | viscosity (303.15 K, x2 = 0): 0.78 mPa·s | viscosity (308.15 K, x2 = 0): 0.74 mPa·s | viscosity (313.15 K, x2 = 0): 0.7 mPa·s | viscosity (318.15 K, x2 = 0): 0.67 mPa·s | viscosity (323.15 K, x2 = 0): 0.63 mPa·s

CCCC[n+]1ccn(C)c1.F[B-](F)(F)F + CN(C)C=O
viscosity (293.15 K, x1 = 0.16): 5.71 mPa·s | viscosity (293.15 K, x1 = 0.24): 9 mPa·s | viscosity (293.15 K, x1 = 0.34): 13.7 mPa·s | viscosity (293.15 K, x1 = 0.43): 18.4 mPa·s | viscosity (293.15 K, x1 = 0.55): 26.7 mPa·s | viscosity (293.15 K, x1 = 0.65): 38.3 mPa·s | viscosity (293.15 K, x1 = 0.74): 55.2 mPa·s | viscosity (293.15 K, x1 = 0.83): 77 mPa·s | viscosity (293.15 K, x1 = 0.94): 105 mPa·s | viscosity (293.15 K, x1 = 1): 125 mPa·s | viscosity (298.15 K, x1 = 0.08): 2.56 mPa·s | viscosity (298.15 K, x1 = 0.16): 3.95 mPa·s | viscosity (298.15 K, x1 = 0.24): 5.82 mPa·s | viscosity (298.15 K, x1 = 0.34): 8.9 mPa·s | viscosity (298.15 K, x1 = 0.43): 12.1 mPa·s | viscosity (298.15 K, x1 = 0.55): 17.7 mPa·s | viscosity (298.15 K, x1 = 0.65): 27.6 mPa·s | viscosity (298.15 K, x1 = 1): 105 mPa·s | viscosity (303.15 K, x1 = 0.08): 2.3 mPa·s | viscosity (303.15 K, x1 = 0.16): 3.21 mPa·s | viscosity (303.15 K, x1 = 0.24): 4.17 mPa·s | viscosity (303.15 K, x1 = 0.34): 6.22 mPa·s | viscosity (303.15 K, x1 = 0.43): 8 mPa·s | viscosity (303.15 K, x1 = 0.55): 12.7 mPa·s | viscosity (303.15 K, x1 = 0.65): 20.7 mPa·s | viscosity (303.15 K, x1 = 0.74): 33.6 mPa·s | viscosity (303.15 K, x1 = 0.83): 51.9 mPa·s | viscosity (303.15 K, x1 = 1): 88 mPa·s | viscosity (308.15 K, x1 = 0.08): 2.27 mPa·s | viscosity (308.15 K, x1 = 0.16): 3.29 mPa·s | viscosity (308.15 K, x1 = 0.24): 3.9 mPa·s | viscosity (308.15 K, x1 = 0.34): 4.65 mPa·s | viscosity (308.15 K, x1 = 0.55): 9.6 mPa·s | viscosity (308.15 K, x1 = 0.65): 16 mPa·s | viscosity (308.15 K, x1 = 0.74): 26.2 mPa·s | viscosity (308.15 K, x1 = 0.83): 42.4 mPa·s | viscosity (308.15 K, x1 = 0.94): 61.9 mPa·s | viscosity (308.15 K, x1 = 1): 72 mPa·s | viscosity (313.15 K, x1 = 0.08): 1.95 mPa·s | viscosity (313.15 K, x1 = 0.24): 2.61 mPa·s | viscosity (313.15 K, x1 = 0.34): 2.49 mPa·s | viscosity (313.15 K, x1 = 0.43): 2.98 mPa·s | viscosity (313.15 K, x1 = 0.55): 5.74 mPa·s | viscosity (313.15 K, x1 = 0.65): 10.4 mPa·s | viscosity (313.15 K, x1 = 0.83): 32.6 mPa·s | viscosity (313.15 K, x1 = 0.94): 49.3 mPa·s | viscosity (313.15 K, x1 = 1): 57.7 mPa·s | viscosity (318.15 K, x1 = 0.16): 1.84 mPa·s | viscosity (318.15 K, x1 = 0.24): 1.59 mPa·s | viscosity (318.15 K, x1 = 0.34): 0.55 mPa·s | viscosity (318.15 K, x1 = 0.65): 5.23 mPa·s | viscosity (318.15 K, x1 = 0.83): 23.6 mPa·s | viscosity (318.15 K, x1 = 0.94): 37.5 mPa·s | viscosity (318.15 K, x1 = 1): 44 mPa·s | viscosity (323.15 K, x1 = 0.16): 1.63 mPa·s | viscosity (323.15 K, x1 = 0.24): 1.88 mPa·s | viscosity (323.15 K, x1 = 0.34): 1.38 mPa·s | viscosity (323.15 K, x1 = 0.43): 0.75 mPa·s | viscosity (323.15 K, x1 = 0.55): 0.5 mPa·s | viscosity (323.15 K, x1 = 0.65): 2.3 mPa·s | viscosity (323.15 K, x1 = 0.83): 15.9 mPa·s | viscosity (323.15 K, x1 = 1): 31.6 mPa·s
